Data set [1] deals with Escherichia coli. Nature of the data set: Antimicrobial activity against Escherichia coli expressing beta-lactamase KPC-2 by CLSI broth microdilution method. The class given is functional.
A short description of data set [2]: Chemical stability in pH 7.4 potassium phosphate buffer assessed as half life for compound hydrolysis at 37 degC by UPLC and mass spectrometry. The class given is physicochemical.
Data set [3] deals with Escherichia coli. The experiment in a line: microbe, parasite or virus in culture.
Description: Antimicrobial activity against wild type Escherichia coli by CLSI broth microdilution method
The test system of data set [4] is Escherichia coli. The experiment in a line: microbe, parasite or virus in culture. The source holds these as a separate data set.
Description: Antimicrobial activity against Escherichia coli expressing beta-lactamase CTXM-15 by CLSI broth microdilution method
In data set [5] the test system is Escherichia coli. The experiment in a line: microbe, parasite or virus in culture. The source holds these as a separate data set.
Description: Antimicrobial activity against Escherichia coli expressing beta-lactamase SHV-12 by CLSI broth microdilution method
In data set [6] the test system is Escherichia coli. The experiment in a line: microbe, parasite or virus in culture. The source holds these as a separate data set.
Description: Antimicrobial activity against Escherichia coli expressing beta-lactamase TEM-10 by CLSI broth microdilution method
Data set [7] relates to Escherichia coli. The experiment in a line: microbe, parasite or virus in culture. This is another data set of the same source.
Description: Antimicrobial activity against Escherichia coli expressing beta-lactamase AmpC by CLSI broth microdilution method
The subject of data set [8] is Escherichia coli. Nature of the data set: microbe, parasite or virus in culture. The source holds these as a separate data set.
Description: Antimicrobial activity against Escherichia coli expressing beta-lactamase CMY-2 by CLSI broth microdilution method

Each structure is given as a SMILES string. ≈ marks a conversion by molar mass, not a printed value.

Regarding `Cc1ncnn1C[C@@H]1[C@H](NC(=O)/C(=N\OC(C)(C)C(=O)O)c2csc(N)n2)C(=O)N1S(=O)(=O)O` (stereo in doubt), the MIC in data set [1] came out at 2 µg/mL (≈ 3.87 µM); in data set [3] it was 4 µg/mL (≈ 7.74 µM); in data set [4] it was 4 µg/mL (≈ 7.74 µM); in data set [5] it was 4 µg/mL (≈ 7.74 µM); in data set [6] it was 8 µg/mL (≈ 15.5 µM); in data set [7], 8 µg/mL (≈ 15.5 µM). In addition, the MIC in data set [8] was 8 µg/mL (≈ 15.5 µM). For the same compound, the half-life (as a rule, the time needed for the level to fall by half in the phase considered) in data set [2] is over 37 h.
Turning to `C[C@@H](O/N=C(\C(=O)N[C@@H]1C(=O)N(S(=O)(=O)O)[C@@H]1Cn1cncn1)c1csc(N)n1)C(=O)O` (stereo in doubt), the MIC in data set [1] came to 1 µg/mL (≈ 2.05 µM); in data set [3], 1 µg/mL (≈ 2.05 µM); in data set [4] it was 0.5 µg/mL (≈ 1.02 µM); in data set [5] it was 2 µg/mL (≈ 4.09 µM); in data set [6], 1 µg/mL (≈ 2.05 µM); in data set [7], 4 µg/mL (≈ 8.19 µM). In addition, in data set [8], the MIC is 16 µg/mL (≈ 32.8 µM).
For `CC(C)(O/N=C(\C(=O)N[C@@H]1C(=O)N(S(=O)(=O)O)[C@@H]1Cn1cc(C(=O)O)nn1)c1csc(N)n1)C(=O)O` (stereo in doubt), the MIC stood at 16 µg/mL (≈ 29.3 µM) in data set [1]; 32 µg/mL (≈ 58.6 µM) in data set [3]; 16 µg/mL (≈ 29.3 µM) in data set [4]; 16 µg/mL (≈ 29.3 µM) in data set [5]; 32 µg/mL (≈ 58.6 µM) in data set [6]; 32 µg/mL (≈ 58.6 µM) in data set [7]. The MIC in data set [8] is 64 µg/mL (≈ 117 µM). In data set [2], the half-life was over 37 h.
For the compound `CC(C)(O/N=C(\C(=O)N[C@@H]1C(=O)N(S(=O)(=O)O)[C@@H]1CN1C[C@@H](CNC(=N)N)OC1=O)c1csc(N)n1)C(=O)O` (stereo in doubt), the MIC in data set [1] is 1 µg/mL (≈ 1.69 µM); in data set [3] it was 0.25 µg/mL (≈ 0.423 µM); in data set [4] it was 0.125 µg/mL (≈ 0.211 µM); in data set [5], 0.25 µg/mL (≈ 0.423 µM); in data set [6], 2 µg/mL (≈ 3.38 µM); in data set [7], 0.25 µg/mL (≈ 0.423 µM). Besides, the MIC in data set [8] was 0.25 µg/mL (≈ 0.423 µM). In addition, the half-life in data set [2] was over 37 h.
Turning to `C[C@H](O/N=C(\C(=O)N[C@@H]1C(=O)N(S(=O)(=O)O)[C@@H]1Cn1cncn1)c1csc(N)n1)C(=O)O` (stereo in doubt), the MIC in data set [1] was 1 µg/mL (≈ 2.05 µM); in data set [3], 0.125 µg/mL (≈ 0.256 µM); in data set [4], 0.125 µg/mL (≈ 0.256 µM); in data set [5], 4 µg/mL (≈ 8.19 µM); in data set [6] it was 4 µg/mL (≈ 8.19 µM); in data set [7] it was 2 µg/mL (≈ 4.09 µM). This compound registered an MIC in data set [8] of 8 µg/mL (≈ 16.4 µM).
Consider `CC(C)(O/N=C(\C(=O)N[C@@H]1C(=O)N(S(=O)(=O)O)[C@@H]1Cn1cc(CNC(=N)N)nn1)c1csc(N)n1)C(=O)O` (stereo in doubt), for which the MIC was found to be 0.5 µg/mL (≈ 0.872 µM) in data set [1]; 0.25 µg/mL (≈ 0.436 µM) in data set [3]; 0.25 µg/mL (≈ 0.436 µM) in data set [4]; 1 µg/mL (≈ 1.74 µM) in data set [5]; 1 µg/mL (≈ 1.74 µM) in data set [6]; 1 µg/mL (≈ 1.74 µM) in data set [7]. In data set [8], this compound came in with an MIC of 0.5 µg/mL (≈ 0.872 µM). For the same compound, the half-life in data set [2] is over 37 h.
Take `CC(C)(O/N=C(\C(=O)N[C@@H]1C(=O)N(S(=O)(=O)O)[C@@H]1CN1C[C@@H](CN)OC1=O)c1csc(N)n1)C(=O)O` (stereo in doubt): the MIC in data set [1] was 1 µg/mL (≈ 1.82 µM); in data set [3] it was 0.5 µg/mL (≈ 0.91 µM); in data set [4], 0.5 µg/mL (≈ 0.91 µM); in data set [5], 0.5 µg/mL (≈ 0.91 µM); in data set [6], 2 µg/mL (≈ 3.64 µM); in data set [7], 1 µg/mL (≈ 1.82 µM). The same compound gave an MIC in data set [8] of 1 µg/mL (≈ 1.82 µM). In addition, in data set [2], the half-life is over 37 h.
With `C[C@@H](O)[C@H]1C(=O)N2C(C(=O)O)=C(SCCN=CN)C[C@H]12` [IMIPENEM ANHYDROUS], the half-life in data set [2] was 46 h.
As for `C[C@@H]1CN(C[C@@H]2[C@H](NC(=O)/C(=N\OC(C)(C)C(=O)O)c3csc(N)n3)C(=O)N2S(=O)(=O)O)C(=O)O1` (stereo in doubt), the MIC turned out to be 1 µg/mL (≈ 1.87 µM) in data set [1]; 1 µg/mL (≈ 1.87 µM) in data set [3]; 1 µg/mL (≈ 1.87 µM) in data set [4]; 1 µg/mL (≈ 1.87 µM) in data set [5]; 8 µg/mL (≈ 15 µM) in data set [6]; 2 µg/mL (≈ 3.74 µM) in data set [7]. In data set [8], this compound displayed an MIC of 4 µg/mL (≈ 7.48 µM). For the same compound, the half-life in data set [2] was over 37 h.
Consider `CC(C)(O/N=C(\C(=O)N[C@@H]1C(=O)N(S(=O)(=O)O)[C@@H]1Cn1cc(NC(=O)C[N+](C)(C)C)nn1)c1csc(N)n1)C(=O)O`, for which the MIC came to 2 µg/mL in data set [1]; 1 µg/mL in data set [3]; 2 µg/mL in data set [4]; 8 µg/mL in data set [5]; 8 µg/mL in data set [6]; 2 µg/mL in data set [7]. The same compound displayed an MIC in data set [8] of 8 µg/mL. In addition, in data set [2], the half-life is over 37 h.
Regarding `CC(C)(O/N=C(\C(=O)N[C@@H]1C(=O)N(S(=O)(=O)O)[C@@H]1Cn1cc(CN)nn1)c1csc(N)n1)C(=O)O` (stereo in doubt), the MIC is 2 µg/mL (≈ 3.76 µM) in data set [1]; 1 µg/mL (≈ 1.88 µM) in data set [3]; 1 µg/mL (≈ 1.88 µM) in data set [4]; 4 µg/mL (≈ 7.53 µM) in data set [5]; 2 µg/mL (≈ 3.76 µM) in data set [6]; 1 µg/mL (≈ 1.88 µM) in data set [7]. Also, the MIC in data set [8] was found to be 1 µg/mL (≈ 1.88 µM). Moreover, the half-life in data set [2] is over 37 h.

The values above are taken from ChEMBL document CHEMBL4184210, “Optimization of novel monobactams with activity against carbapenem-resistant Enterobacteriaceae - Identification of LYS228” (Bioorg Med Chem Lett, 2018).
